# Data from PMC8465942, “Cyano- and Ketone-Containing Selenoesters as Multi-Target Compounds against Resistant Cancers” (Cancers, 2021).
# Values joined by “and” are separate entries in the source; they are usually repeats but may differ in a detail not shown here. Identical values can stand only once. “Also recorded” adds a separate entry of the source. Marks after values point to notes of the source that are not given here.
# What was measured:
# [1] = test system: MDR Colo 320 adenocarcinoma cells; test: Apoptosis induction (Annexin V-FITC / propidium iodide); type: cell-based, human; details: 2 µM; for Cell Death (%) Treated Sample-Untreated Sample / Early Apoptosis (%) Treated Sample-Untreated Sample / Late Apoptosis (%) Treated Sample-Untreated Sample: 3 h induction; for Apoptosis Quotient (%): total apoptotic events relative to reference M627 (20 µM)
# Description: The assay was carried out using an Annexin V-FITC Apoptosis Detection Kit Cat. No. PF 032 from Calbiochem (EMD Biosciences. Inc. La Jolla. CA), according to the manufacturer's instructions. […] The cell suspension was distributed into 1 mL aliquots (1 × 10^6 cells) into a 24-well microplate and incubated overnight at 37 °C, with 5% CO2. On the following day, the medium was removed and a fresh medium was added to the cells. The cells were incubated in the presence of Se-compounds for 3 h at 37 °C. […] After a 3 h induction period, the culture medium was removed, the cells were washed with PBS, and a fresh medium was added to the cells. The 24-well plates were incubated overnight at 37 °C, with 5% CO2. After the incubation, the supernatant was collected in a microfuge tube and 200 μL of 0.25 trypsin (Trypsin-Versene) was added to the wells until the cells detached from the surfaces of the wells. The cells were centrifuged at 2000× g for 2 min at room temperature, the supernatant was removed, and the cells were re-suspended in fresh serum-free medium. After this procedure, apoptosis assay was carried out according to the rapid protocol of the kit using Annexin V-FITC and propidium iodide staining. […] The data were analysed by FlowJo^TM software (BD Biosciences, San Jose, NJ, USA).
# [2] = target: ABCB1 (P-glycoprotein) in Colo 320 colonic adenocarcinoma cells (Homo sapiens, UniProt P08183); test: ABCB1 inhibition, rhodamine 123 accumulation by flow cytometry; details: for FAR (fluorescence activity ratio): rhodamine 123, FAR above 2 considered effective
# Sequence of ABCB1 (P-glycoprotein) in Colo 320 colonic adenocarcinoma cells (P08183 whole entry): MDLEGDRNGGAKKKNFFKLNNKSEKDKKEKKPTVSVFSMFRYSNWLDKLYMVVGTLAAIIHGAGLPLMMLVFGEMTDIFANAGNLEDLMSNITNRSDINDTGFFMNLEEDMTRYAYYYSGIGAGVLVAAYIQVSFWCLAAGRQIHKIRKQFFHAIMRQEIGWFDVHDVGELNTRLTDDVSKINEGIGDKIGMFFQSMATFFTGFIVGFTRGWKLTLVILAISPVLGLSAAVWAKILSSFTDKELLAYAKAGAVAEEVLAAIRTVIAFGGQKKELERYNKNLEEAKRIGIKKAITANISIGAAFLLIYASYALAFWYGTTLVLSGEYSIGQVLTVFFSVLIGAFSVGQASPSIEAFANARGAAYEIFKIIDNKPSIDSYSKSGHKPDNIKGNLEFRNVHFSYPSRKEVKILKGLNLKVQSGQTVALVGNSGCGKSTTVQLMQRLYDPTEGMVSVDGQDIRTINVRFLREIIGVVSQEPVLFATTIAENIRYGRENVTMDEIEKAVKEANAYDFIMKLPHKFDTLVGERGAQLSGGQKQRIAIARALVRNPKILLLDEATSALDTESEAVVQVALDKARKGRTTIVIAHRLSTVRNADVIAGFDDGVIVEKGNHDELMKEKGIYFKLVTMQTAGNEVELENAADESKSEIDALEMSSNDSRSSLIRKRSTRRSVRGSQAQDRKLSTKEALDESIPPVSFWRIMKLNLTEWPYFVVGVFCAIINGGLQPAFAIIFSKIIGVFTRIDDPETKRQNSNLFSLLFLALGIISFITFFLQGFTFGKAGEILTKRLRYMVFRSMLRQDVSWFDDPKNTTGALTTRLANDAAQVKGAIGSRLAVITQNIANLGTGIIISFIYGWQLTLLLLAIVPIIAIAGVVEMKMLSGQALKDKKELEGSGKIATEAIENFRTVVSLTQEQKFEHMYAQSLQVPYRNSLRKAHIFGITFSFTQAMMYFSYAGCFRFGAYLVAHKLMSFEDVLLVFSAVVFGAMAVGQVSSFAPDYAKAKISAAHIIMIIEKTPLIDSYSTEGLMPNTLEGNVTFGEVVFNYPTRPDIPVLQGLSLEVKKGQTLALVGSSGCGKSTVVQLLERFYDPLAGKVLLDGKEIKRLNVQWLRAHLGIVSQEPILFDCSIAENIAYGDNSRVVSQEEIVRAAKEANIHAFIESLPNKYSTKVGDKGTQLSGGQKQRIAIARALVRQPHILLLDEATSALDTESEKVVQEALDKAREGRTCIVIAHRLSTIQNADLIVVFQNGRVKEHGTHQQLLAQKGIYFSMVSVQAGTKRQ
# Description: The inhibition of the ABCB1 multidrug efflux pump ABCB1 by the tested compounds was evaluated using flow cytometry, measuring the retention of rhodamine 123 by ABCB1 (P-glycoprotein) in Colo 320 colonic adenocarcinoma cells. Briefly, the cell number of colonic adenocarcinoma cells were adjusted to 2 × 10^6 cells/mL, re-suspended in serum-free RPMI-1640 medium in the case of colonic adenocarcinoma cells, and distributed in 0.5 mL aliquots into Eppendorf centrifuge tubes. The tested compounds were added at different concentrations (0.2 and 2 µM; from 1 and 10 mM stock solutions, respectively), and the samples were incubated for 10 min at room temperature. Tariquidar was applied as the positive control (0.2 µM final concentration), and DMSO was used as the solvent control (at 2 v/v%). Next, 10 µL (5.2 µM final concentration) of the fluorochrome rhodamine 123 (Sigma, St. Louis, MO, USA) was added to the samples and the cells were incubated for 20 min at 37 °C. After the incubation period, the cells were washed twice and re-suspended in 0.5 mL PBS for analysis. The fluorescence of the gated cell population was measured with a Partec CyFlow® flow cytometer (Partec, Münster, Germany). The percentage of the mean fluorescence intensity was calculated for the treated MDR cells as compared with the untreated cells. The results were obtained from a representative flow cytometry experiment in which at least 20,000 individual cells of the overall population were evaluated for the rhodamine 123 retained inside the cells. The fluorescence activity ratio (FAR) was calculated based on the following equation, which relates the measured fluorescence values: FAR=Colo320treated / Colo320control/Colo205treated / Colo205control
# The parameters evaluated from flow cytometry experiments were: Forward Scatter Count (FSC, provides information about cell size); Side Scatter Count (SSC, proportional to cell granularity or internal complexity); FL-1 (Mean fluorescence of the cells), and Fluorescence Activity Ratio (FAR), which was calculated by the equation given above.
# [3] = target: T1, recombinant human P-gp membranes (Homo sapiens, UniProt P08183); test: P-gp ATPase activity assay (Pgp-Glo); type: biochemical; details: 25 µM; relative to basal activity
# T1 construct: purchased Promega
# T1 sequence (P08183 whole entry): as above
# Description: P-glycoprotein ATPase activity was determined using the Pgp-Glo^TM Assay System (Promega, WI, USA). The assay was performed according to the manufacturer’s instructions. […] DMSO at 2% was applied as a solvent control. […] The reaction was stopped after adding 50 µL of ATP Detection Reagent. Then, the samples and controls were incubated at room temperature for 20 min. The emitted luciferase-generated luminescent signal was measured in a CLARIOstar Plus plate reader (BMG Labtech, UK) at 580 nm. The relative ATPase activity was calculated based on the ratio between the luminescence measured of the P-gp ATPase activity of each compound and the basal P-gp ATPase activity according to the following equation: Relative ATPase activity=Lumtreated−Lumuntreated/LumNa3VO4 − Lumuntreated
# The effect of the tested compounds was evaluated according to the instructions of the manufacturer (Table 2).
# [4] = test system: HepG2 (hepatocellular carcinoma); test: Cytotoxicity on HepG2 cells; type: cell-based, human; details: ratio IC50 non-tumour cells / IC50 cancer cells
structure (smiles),measurement,setting,value
"CC(=O)C[Se]C(=O)c1cccs1 [K1, Se-(2-Oxopropyl) Thiophene-2-carboselenoate]","Total Apoptotic Events (Early + Late, %)",[1],32.6%
same,Cell Death (%) Treated Sample-Untreated Sample,[1],2.15%
same,Early Apoptosis (%) Treated Sample-Untreated Sample,[1],3.7%
same,Late Apoptosis (%) Treated Sample-Untreated Sample,[1],28.9%
same,Apoptosis Quotient (%),[1],66.0%
same,FSC (Forward Scatter Count),[2]; 0.2 µM,2144
same,SSC (Side Scatter Count),[2]; 0.2 µM,989
same,FAR (fluorescence activity ratio),[2]; 0.2 µM,1.37
same,FSC (Forward Scatter Count),[2]; 2 µM,1866
same,SSC (Side Scatter Count),[2]; 2 µM,1067
same,FAR (fluorescence activity ratio),[2]; 2 µM,45.73
same,Effect on P-gp ATPase activity,[3],inhibited the ATPase activity; also recorded: inhibitors of P-gp ATPase activity
"CC(=O)C[Se]C(=O)c1ccccc1F [K2, Se-(2-Oxopropyl) 2-Fluorobenzoselenoate]","Total Apoptotic Events (Early + Late, %)",[1],34.2%
same,Cell Death (%) Treated Sample-Untreated Sample,[1],0.95%
same,Early Apoptosis (%) Treated Sample-Untreated Sample,[1],0.3%
same,Late Apoptosis (%) Treated Sample-Untreated Sample,[1],33.9%
same,Apoptosis Quotient (%),[1],69.2%
same,SI MRC-5/HepG2,[4],1.1
same,FSC (Forward Scatter Count),[2]; 0.2 µM,1916
same,SSC (Side Scatter Count),[2]; 0.2 µM,1061
same,FAR (fluorescence activity ratio),[2]; 0.2 µM,1.41
same,FSC (Forward Scatter Count),[2]; 2 µM,1945
same,SSC (Side Scatter Count),[2]; 2 µM,1156
same,FAR (fluorescence activity ratio),[2]; 2 µM,37.35
"CC(=O)C[Se]C(=O)c1ccc(Br)cc1 [K3, Se-(2-Oxopropyl) 4-Bromobenzoselenoate]","Total Apoptotic Events (Early + Late, %)",[1],44.2%
same,Cell Death (%) Treated Sample-Untreated Sample,[1],0.00%
same,Early Apoptosis (%) Treated Sample-Untreated Sample,[1],18.6%
same,Late Apoptosis (%) Treated Sample-Untreated Sample,[1],25.6%
same,Apoptosis Quotient (%),[1],89.5%
same,FSC (Forward Scatter Count),[2]; 0.2 µM,1706
same,SSC (Side Scatter Count),[2]; 0.2 µM,982
same,FAR (fluorescence activity ratio),[2]; 0.2 µM,3.99
same,FSC (Forward Scatter Count),[2]; 2 µM,2040
same,SSC (Side Scatter Count),[2]; 2 µM,1031
same,FAR (fluorescence activity ratio),[2]; 2 µM,39.17
same,Effect on P-gp ATPase activity,[3],stimulated the P-gp ATPase with a comparable intensity to the reference verapamil
"CC(=O)C[Se]C(=O)c1ccccc1C(F)(F)F [K4, Se-(2-Oxopropyl) 2-(Trifluoromethyl)benzoselenoate]","Total Apoptotic Events (Early + Late, %)",[1],19.5%
same,Cell Death (%) Treated Sample-Untreated Sample,[1],5.95%
same,Early Apoptosis (%) Treated Sample-Untreated Sample,[1],3.4%
same,Late Apoptosis (%) Treated Sample-Untreated Sample,[1],16.1%
same,Apoptosis Quotient (%),[1],39.5%
same,FSC (Forward Scatter Count),[2]; 0.2 µM,1808
same,SSC (Side Scatter Count),[2]; 0.2 µM,861
same,FAR (fluorescence activity ratio),[2]; 0.2 µM,1.76
same,FSC (Forward Scatter Count),[2]; 2 µM,1830
same,SSC (Side Scatter Count),[2]; 2 µM,1008
same,FAR (fluorescence activity ratio),[2]; 2 µM,4.99
"CC(=O)C[Se]C(=O)c1cccc(C(F)(F)F)c1 [K5, Se-(2-Oxopropyl) 3-(Trifluoromethyl)benzoselenoate]","Total Apoptotic Events (Early + Late, %)",[1],32.7%
same,Cell Death (%) Treated Sample-Untreated Sample,[1],1.35%
same,Early Apoptosis (%) Treated Sample-Untreated Sample,[1],1.8%
same,Late Apoptosis (%) Treated Sample-Untreated Sample,[1],30.9%
same,Apoptosis Quotient (%),[1],66.2%
same,SI MRC-5/HepG2,[4],1.3
same,FSC (Forward Scatter Count),[2]; 0.2 µM,1982
same,SSC (Side Scatter Count),[2]; 0.2 µM,1096
same,FAR (fluorescence activity ratio),[2]; 0.2 µM,1.84
same,FSC (Forward Scatter Count),[2]; 2 µM,1949
same,SSC (Side Scatter Count),[2]; 2 µM,1053
same,FAR (fluorescence activity ratio),[2]; 2 µM,32.61 and 32.62
same,Effect on P-gp ATPase activity,[3],milder stimulation
"CC(=O)C[Se]C(=O)c1ccc(F)c(Cl)c1 [K6, Se-(2-Oxopropyl) 3-Chloro-4-fluorobenzoselenoate]","Total Apoptotic Events (Early + Late, %)",[1],32.3%
same,Cell Death (%) Treated Sample-Untreated Sample,[1],0.17%
same,Early Apoptosis (%) Treated Sample-Untreated Sample,[1],4.5%
same,Late Apoptosis (%) Treated Sample-Untreated Sample,[1],27.8%
same,Apoptosis Quotient (%),[1],65.4%
same,FSC (Forward Scatter Count),[2]; 0.2 µM,1996
same,SSC (Side Scatter Count),[2]; 0.2 µM,873
same,FAR (fluorescence activity ratio),[2]; 0.2 µM,1.48
same,FSC (Forward Scatter Count),[2]; 2 µM,1833
same,SSC (Side Scatter Count),[2]; 2 µM,1043
same,FAR (fluorescence activity ratio),[2]; 2 µM,29.4 and 29.42
"CC(=O)C[Se]C(=O)c1ccc(C(C)(C)C)cc1 [K7, Se-(2-Oxopropyl) 4-(Tert-butyl)benzoselenoate]","Total Apoptotic Events (Early + Late, %)",[1],33.6%
same,Cell Death (%) Treated Sample-Untreated Sample,[1],0.10%
same,Early Apoptosis (%) Treated Sample-Untreated Sample,[1],6.1%
same,Late Apoptosis (%) Treated Sample-Untreated Sample,[1],27.5%
same,Apoptosis Quotient (%),[1],68.0%
same,SI MRC-5/HepG2,[4],1.0
same,FSC (Forward Scatter Count),[2]; 0.2 µM,1889
same,SSC (Side Scatter Count),[2]; 0.2 µM,938
same,FAR (fluorescence activity ratio),[2]; 0.2 µM,1.53
same,FSC (Forward Scatter Count),[2]; 2 µM,1920
same,SSC (Side Scatter Count),[2]; 2 µM,1045
same,FAR (fluorescence activity ratio),[2]; 2 µM,40.38 and 40.39
same,Effect on P-gp ATPase activity,[3],inhibited the ATPase activity; also recorded: inhibitors of P-gp ATPase activity
"CC(=O)C[Se]C(=O)c1cc(F)c(F)cc1F [K8, Se-(2-Oxopropyl) 2,4,5-Trifluorobenzoselenoate]","Total Apoptotic Events (Early + Late, %)",[1],31.6%
same,Cell Death (%) Treated Sample-Untreated Sample,[1],0.85%
same,Early Apoptosis (%) Treated Sample-Untreated Sample,[1],4.9%
same,Late Apoptosis (%) Treated Sample-Untreated Sample,[1],26.7%
same,Apoptosis Quotient (%),[1],64.0%
same,SI MRC-5/HepG2,[4],0.6
same,FSC (Forward Scatter Count),[2]; 0.2 µM,1804
same,SSC (Side Scatter Count),[2]; 0.2 µM,853
same,FAR (fluorescence activity ratio),[2]; 0.2 µM,3.38
same,FSC (Forward Scatter Count),[2]; 2 µM,1990
same,SSC (Side Scatter Count),[2]; 2 µM,1131
same,FAR (fluorescence activity ratio),[2]; 2 µM,36.09
same,Effect on P-gp ATPase activity,[3],milder inhibition of the ATPase; also recorded: inhibitors of P-gp ATPase activity
"N#CC[Se]C(=O)c1cccc(F)c1 [N2, Se-(Cyanomethyl) 3-Fluorobenzoselenoate]",SI MRC-5/HepG2,[4],>6 *
"N#CC[Se]C(=O)c1ccc(Br)cc1 [N3, Se-(Cyanomethyl) 4-Bromobenzoselenoate]",melting point,,105 to 107 °C
same,SI MRC-5/HepG2,[4],>6 *
"N#CC[Se]C(=O)c1ccccc1C(F)(F)F [N4, Se-(Cyanomethyl) 2-(Trifluoromethyl)benzoselenoate]",melting point,,65 to 67 °C
same,SI MRC-5/HepG2,[4],>6 *
"N#CC[Se]C(=O)c1cc(C(F)(F)F)cc(C(F)(F)F)c1 [N7, Se-(Cyanomethyl) 3,5-Bis(trifluoromethyl)benzoselenoate]",melting point,,63 to 65 °C
same,SI MRC-5/HepG2,[4],>6 *
